pEC50: −log10 of the molar value.
Assays:
OR2W1 = biological target: T1, OR2W1 (Homo sapiens, UniProt Q9Y3N9); set-up: method as in PMID 19261596; details: read-out: EC50 value of n-hexanal for OR2W1 reported in a previous study; cited from earlier work
T1 construct: Lucy tag (N); FLAG (N); Rho tag (N); expressed in transfected cells; host or cells: Flp-In T-REx-293 cells stably expressing RTP1S, Gαolf and Ric8-b
T1 sequence (Q9Y3N9 1-320): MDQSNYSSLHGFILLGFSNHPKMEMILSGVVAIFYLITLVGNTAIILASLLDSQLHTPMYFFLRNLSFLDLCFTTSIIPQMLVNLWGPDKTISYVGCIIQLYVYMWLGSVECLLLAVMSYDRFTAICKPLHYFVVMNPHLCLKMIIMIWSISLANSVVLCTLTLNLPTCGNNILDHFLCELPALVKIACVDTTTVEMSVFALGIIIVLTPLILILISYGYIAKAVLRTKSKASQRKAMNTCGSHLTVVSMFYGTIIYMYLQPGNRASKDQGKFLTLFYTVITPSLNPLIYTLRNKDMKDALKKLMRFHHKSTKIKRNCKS

OR8B8 = biological target: T2, OR8B8 (Homo sapiens, UniProt Q15620); test: hOR assay (GloSensor cAMP luciferase), dose-response; type: cell-based; details: OR8B8, with or without the TAR-Tat system
T2 construct: Lucy tag (N); FLAG (N); Rho tag (N); expressed in transfected cells; host or cells: Flp-In T-REx-293 cells stably expressing RTP1S, Gαolf and Ric8-b
T2 sequence (Q15620 1-311): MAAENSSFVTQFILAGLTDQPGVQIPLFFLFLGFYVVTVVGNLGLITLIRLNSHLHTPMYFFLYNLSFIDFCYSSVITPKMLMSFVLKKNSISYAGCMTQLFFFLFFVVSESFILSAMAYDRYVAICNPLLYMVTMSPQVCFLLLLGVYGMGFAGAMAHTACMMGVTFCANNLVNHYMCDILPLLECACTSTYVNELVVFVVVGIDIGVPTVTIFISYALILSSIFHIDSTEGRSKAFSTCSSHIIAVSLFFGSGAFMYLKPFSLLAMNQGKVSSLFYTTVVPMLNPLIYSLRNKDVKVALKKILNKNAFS

OR2Z1 = biological target: T3, OR2Z1 (Homo sapiens, UniProt Q8NG97); test: as above; type: cell-based; details: OR2Z1, with or without the TAR-Tat system
T3 construct: Lucy tag (N); FLAG (N); Rho tag (N); expressed in transfected cells; host or cells: Flp-In T-REx-293 cells stably expressing RTP1S, Gαolf and Ric8-b
T3 sequence (Q8NG97 1-314): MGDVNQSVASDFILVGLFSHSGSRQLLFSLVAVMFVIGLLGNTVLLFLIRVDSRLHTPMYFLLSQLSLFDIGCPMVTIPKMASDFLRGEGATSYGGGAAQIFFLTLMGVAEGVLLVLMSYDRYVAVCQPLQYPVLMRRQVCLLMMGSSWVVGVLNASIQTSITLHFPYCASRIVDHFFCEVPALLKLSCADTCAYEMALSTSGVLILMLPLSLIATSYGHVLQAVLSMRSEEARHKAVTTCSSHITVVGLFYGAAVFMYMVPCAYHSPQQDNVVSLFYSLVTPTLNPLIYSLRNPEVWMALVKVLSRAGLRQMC

OR2J3 = biological target: T4, OR2J3 (Homo sapiens, UniProt O76001); test: as above; type: cell-based; details: OR2J3, with and without the TAR-Tat system
T4 construct: Lucy tag (N); FLAG (N); Rho tag (N); expressed in transfected cells; host or cells: Flp-In T-REx-293 cells stably expressing RTP1S, Gαolf and Ric8-b
T4 sequence (O76001 1-311): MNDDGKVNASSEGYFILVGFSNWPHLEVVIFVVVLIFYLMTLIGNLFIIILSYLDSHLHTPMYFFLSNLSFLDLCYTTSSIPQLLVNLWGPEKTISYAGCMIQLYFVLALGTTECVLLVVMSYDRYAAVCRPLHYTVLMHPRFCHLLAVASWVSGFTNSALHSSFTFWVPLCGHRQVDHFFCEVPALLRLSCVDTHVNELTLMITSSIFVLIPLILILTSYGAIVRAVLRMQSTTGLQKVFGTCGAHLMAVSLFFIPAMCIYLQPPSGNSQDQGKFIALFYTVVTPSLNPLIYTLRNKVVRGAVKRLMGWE

- concentration-dependent response to n-hexanal (OR8B8): no concentration-dependent response
- concentration-dependent response to n-hexanal (OR2Z1): no concentration-dependent response
Structure (SMILES): CCCCCC=O [n-hexanal]
- pEC50 (OR2W1): 5.10
- concentration-dependent response to n-hexanal (OR2J3): concentration-dependent responses only with the TAR-Tat system
